Measured values taken from patent publication US20130143256A1, “LIQUID-BASED METHOD FOR PRODUCING PLANT EMBRYOS” (ArborGen Inc., priority 2006, published 2013).

Tests used:
Assay type in all cases: cell-based, loblolly pine
cell line M = assay: Effect of maltose on embryo production in liquid EDM, cell line M; conditions: highest (60 g/L) concentration of maltose
Description: (§1) Suspension cultures of the following four loblolly pine genotypes, I, B, M, and N, were tested. Each cell line or genotype was initiated from an individual immature seed explant derived from a control pollinated cross of select parent trees of loblolly pine. Five variations in the Liquid EDM listed in Table 1 were tested for development of loblolly pine somatic embryos in liquid. The five treatments were coded 1, 2, 3, 4 and 5 according to the concentration of maltose in the liquid medium, 0, 10, 20, 40 and 60 g/l, respectively. The proliferating embryogenic suspension cultures were poured in the side arm of the flask for 30 minutes to measure the settled cell volume (SCV) as described in example 2. A sub-sample of 12 ml of proliferating liquid suspension was removed for baseline development plating on five plates of MSG gelled embryo development medium for comparative purposes. The SCV measurement was recorded and the proliferating liquid suspensions were distributed among the treatments listed above. […] The SCV measurements were recorded and the flasks were placed on the shaker in the dark, 24° C. growth chamber and monitored on a weekly basis for five weeks as described below. the liquid embryo development suspensions were poured into the sidearm and allowed to settle in the sidearm for 30 minutes and the SCV measured and recorded. […]

[1] = test system: pine somatic embryos, genotype B; assay: Germination of embryos developed at varying maltose concentration, genotype B
Description: (§2) In this particular experiment, after the 3 week conditioning treatment, the embryos on the membrane were placed on modMS germination medium in a lighted culture room at 24° C. After 3 to 5 days the embryos were individually removed from the membrane and transferred directly to the surface of modMS germination medium and cultured for an additional 2 weeks in a lighted growth room at 24° C. Embryo germination, which in this particular instance was estimated by identifying the emergence of a root from the embryo that was at least 1 cm long during this 2 week time period. Twenty-nine percent of the embryos harvested from liquid EDM germinated. Embryos were harvested and prepared for germination using two conditioning treatments: (1) exposure to high relative humidity for 3 weeks at 24° C. […] Embryos were then germinated as previously described in Example 5.

cell line B = assay: Effect of maltose on embryo production in liquid EDM, cell line B; conditions: for Total Avg. Potential Embryos: 30 ml
Description: (§3) Suspension cultures of the following four loblolly pine genotypes, I, B, M, and N, were tested. Each cell line or genotype was initiated from an individual immature seed explant derived from a control pollinated cross of select parent trees of loblolly pine. Five variations in the Liquid EDM listed in Table 1 were tested for development of loblolly pine somatic embryos in liquid. The five treatments were coded 1, 2, 3, 4 and 5 according to the concentration of maltose in the liquid medium, 0, 10, 20, 40 and 60 g/l, respectively. The proliferating embryogenic suspension cultures were poured in the side arm of the flask for 30 minutes to measure the settled cell volume (SCV) as described in example 2. A sub-sample of 12 ml of proliferating liquid suspension was removed for baseline development plating on five plates of MSG gelled embryo development medium for comparative purposes. The SCV measurement was recorded and the proliferating liquid suspensions were distributed among the treatments listed above. Each treatment flask was initiated by placing 15 milliliters of 100% SCV onto a raft placed on a Buchner funnel and the excess liquid was removed through gentle vacuum aspiration. The tissues were then re-suspended into a 250 ml sidearm flask with 30 milliliters of Liquid Embryo Development Media with various maltose concentrations (from 0 to 60 g/l). Once the cultures were re-suspended in liquid EDM the suspensions were poured in the sidearm to settle in the sidearm for thirty minutes to measure the SCV. Each treatment had three replicate flasks. The SCV measurements were recorded and the flasks were placed on the shaker in the dark, 24° C. growth chamber and monitored on a weekly basis for five weeks as described below. the liquid embryo development suspensions were poured into the sidearm and allowed to settle in the sidearm for 30 minutes and the SCV measured and recorded. Each flask was sub-cultured as needed by adding liquid EDM to maintain the suspension density at 50%. This sequence of events was repeated at week two and week three. no media manipulation. The cultures were observed and placed back on the shaker. At week five the embryos were harvested as described in example 6 with the exception of using a 560 μm mesh to wash embryos. Half of the embryos were conditioned as described in example 6 and half were conditioned by the method described in U.S. Application Ser. No. 60/675, 949 simply for comparative purposes.

cell line N = assay: Effect of maltose on embryo production in liquid EDM, cell line N; conditions: maltose 0 to 60 g/l
Description: as §1

cell line I = assay: Effect of maltose on embryo production in liquid EDM, cell line I; conditions: for Total Avg. Potential Embryos: 30 ml
Description: as §3

[2] = test system: pine somatic embryos, genotype I; assay: Germination of embryos developed at varying maltose concentration, genotype I
Description: as §2

[3] = Cond 1: 3 wk HRH, maltose conc. 1%
[4] = Cond 1: 3 wk HRH, maltose conc. 2%
[5] = Cond 1: 3 wk HRH, maltose conc. 4%
[6] = Cond 1: 3 wk HRH, maltose conc. 6%
[7] = Cond 2: 4 wk cold & 3 wk HRH, maltose conc. 1%
[8] = Cond 2: 4 wk cold & 3 wk HRH, maltose conc. 2%
[9] = Cond 2: 4 wk cold & 3 wk HRH, maltose conc. 4%
[10] = Cond 2: 4 wk cold & 3 wk HRH, maltose conc. 6%
[11] = cell line B, maltose 10 g/l, week 5
[12] = cell line B, maltose 20 g/l, week 5
[13] = cell line B, maltose 40 g/l, week 5
[14] = cell line B, maltose 60 g/l, week 5
[15] = cell line I, maltose 10 g/l, week 5
[16] = cell line I, maltose 20 g/l, week 5
[17] = cell line I, maltose 40 g/l, week 5
[18] = cell line I, maltose 60 g/l, week 5

OC[C@H]1O[C@H](O[C@H]2[C@H](O)[C@@H](O)C(O)O[C@@H]2CO)[C@H](O)[C@@H](O)[C@@H]1O (mixture of isomers) [maltose]
response to increasing maltose (cell line M): producing embryos that had not fully development
Germination [1, 3]: 9%
Germination [1, 4]: 8%
Germination [1, 5]: 8%
Germination [1, 6]: 41%
Germination [1, 7]: 5%
Germination [1, 8]: 3%
Germination [1, 9]: 24%
Germination [1, 10]: 29%
production of fully developed embryos (cell line B; cell line B, all liquid EDM treatments that contained maltose (10 to 60 g/l)): Fully developed embryos were produced
Avg. Embryos (cell line B; cell line B, maltose 10 g/l): 189 per g tissue
Total Avg. Potential Embryos (cell line B; cell line B, maltose 10 g/l): 464 per flask
Avg. Embryos (cell line B; [11]): 17 per ml
Avg. ± st. dev. Embryos harvested (cell line B; [11]): 232 ± 84 per 15 ml
Avg. Embryos (cell line B; cell line B, maltose 20 g/l): 218 per g tissue
Total Avg. Potential Embryos (cell line B; cell line B, maltose 20 g/l): 526 per flask
Avg. Embryos (cell line B; [12]): 18 per ml
Avg. ± st. dev. Embryos harvested (cell line B; [12]): 263 ± 76 per 15 ml
Avg. Embryos (cell line B; cell line B, maltose 40 g/l): 165 per g tissue
Total Avg. Potential Embryos (cell line B; cell line B, maltose 40 g/l): 422 per flask
Avg. Embryos (cell line B; [13]): 15 per ml
Avg. ± st. dev. Embryos harvested (cell line B; [13]): 211 ± 281 per 15 ml
Avg. Embryos (cell line B; cell line B, maltose 60 g/l): 89 per g tissue
Total Avg. Potential Embryos (cell line B; cell line B, maltose 60 g/l): 240 per flask
Avg. Embryos (cell line B; [14]): 8 per ml
Avg. ± st. dev. Embryos harvested (cell line B; [14]): 120 ± 20 per 15 ml
average number of embryos produced per ml of total media used (cell line B; line B, across maltose levels from 10 to 60 g/l): 5.6 per ml
response to maltose treatments (cell line N): did not respond
production of fully developed embryos (cell line I; cell line I, all liquid EDM treatments that contained maltose (10 to 60 g/l)): Fully developed embryos were produced
Avg. Embryos (cell line I; cell line I, maltose 10 g/l): 206 per g tissue
Total Avg. Potential Embryos (cell line I; cell line I, maltose 10 g/l): 464 per flask
Avg. Embryos (cell line I; [15]): 16 per ml
Avg. ± st. dev. Embryos harvested (cell line I; [15]): 232 ± 14 per 15 ml
Avg. Embryos (cell line I; cell line I, maltose 20 g/l): 216 per g tissue
Total Avg. Potential Embryos (cell line I; cell line I, maltose 20 g/l): 486 per flask
Avg. Embryos (cell line I; [16]): 14 per ml
Avg. ± st. dev. Embryos harvested (cell line I; [16]): 243 ± 60 per 15 ml
Avg. Embryos (cell line I; cell line I, maltose 40 g/l): 237 per g tissue
Total Avg. Potential Embryos (cell line I; cell line I, maltose 40 g/l): 526 per flask
Avg. Embryos (cell line I; [17]): 16 per ml
Avg. ± st. dev. Embryos harvested (cell line I; [17]): 263 ± 22 per 15 ml
Avg. Embryos (cell line I; cell line I, maltose 60 g/l): 290 per g tissue
Total Avg. Potential Embryos (cell line I; cell line I, maltose 60 g/l): 702 per flask
Avg. Embryos (cell line I; [18]): 20 per ml
Avg. ± st. dev. Embryos harvested (cell line I; [18]): 351 ± 66 per 15 ml
average number of embryos produced per total volume of medium used (discarded and saved) (cell line I; line I, 40 g/l maltose, 70 ml medium): 7.5 embryos per total ml media used
average number of embryos produced per ml of total media used (cell line I; line I, across maltose levels from 10 to 60 g/l): 8.3 per ml
Germination [2, 3]: 37%
Germination [2, 4]: 40%
Germination [2, 5]: 33%
Germination [2, 6]: 19%
Germination [2, 7]: 21%
Germination [2, 8]: 55%
Germination [2, 9]: 48%
Germination [2, 10]: 27%
